# In PubChem BioAssay AID588764 (Broad Institute, 2011):
# Results filed as inconclusive are left out. Activity calls are given as the source filed them. No rule for the calls is given here.
# Target: Histone acetyltransferase RTT109 (Candida albicans (strain SC5314 / ATCC MYA-2876)) (UniProt Q5AAJ8)
# Test: Rtt109/Vps75 acetyltransferase inhibitor potency, dose response, biochemical, cherry-picked hits, plate reader (AID 588764);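 as to activity change, negative = inhibition: 0% = neutral control wells and -100% = no enzyme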
# Conditions: Rtt109/Vps75 HAT activity
# Sequence of Histone acetyltransferase RTT109 (Candida albicans (strain SC5314 / ATCC MYA-2876)) (Q5AAJ8 whole entry, looked up): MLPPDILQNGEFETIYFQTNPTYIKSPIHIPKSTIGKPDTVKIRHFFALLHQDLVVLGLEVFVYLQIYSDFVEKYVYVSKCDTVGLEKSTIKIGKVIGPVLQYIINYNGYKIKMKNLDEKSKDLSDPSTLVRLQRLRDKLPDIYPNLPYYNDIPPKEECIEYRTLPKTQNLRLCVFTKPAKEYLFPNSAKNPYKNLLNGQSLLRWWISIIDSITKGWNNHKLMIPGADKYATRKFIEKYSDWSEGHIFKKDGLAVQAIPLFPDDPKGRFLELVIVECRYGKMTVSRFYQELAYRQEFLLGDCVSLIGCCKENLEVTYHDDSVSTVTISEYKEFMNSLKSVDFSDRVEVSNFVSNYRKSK
row,Compound,AC50 [µM]
1,O=C1OC(NC(=O)c2ccccc2)C(n2cc(CO)nn2)=C1Cl (centres undefined),5.2
2,O=C(COC(=O)c1cnccn1)c1ccc([N+](=O)[O-])cc1,11.4
3,CCOC(=O)/C=C/C(=O)Nc1cccc([N+](=O)[O-])c1,5.91
4,Nc1nnc(SC2CC(=O)N(c3ccccc3)C2=O)s1 (centres undefined),13.6
5,CN1CCc2cccc3c2[C@H]1Cc1ccc(O)c(O)c1-3,18.4
6,CN(C)C(=S)SSC(=S)N(C)C,3.4
7,N#Cc1c(Nc2ccccc2)s[nH]c1=O,5.84
8,Cc1nnc(SC2CC(=O)N(c3ccccc3)C2=O)s1 (centres undefined),17.5

# Same assay, conditions: Rtt109/Vps75 HAT activity, at 19.5 µM (top of the series)
row,Compound,"activity change, negative = inhibition"
1,O=C1CN(C(=O)/C=C/c2ccc(Cl)cc2)c2ccccc2N1,inactive
2,O=C(CN1CCCc2ccccc21)NCc1ccc2c(c1)OCO2,inactive
3,COc1cccc(-c2nn(C)c3sc(C(=O)N4CCN(c5ccccn5)CC4)cc23)c1,inactive
4,Cc1ccccc1Nc1nnc(SCC2CCCCO2)s1 (centres undefined),inactive
5,Cc1cccc(-n2c(SCC(N)=O)nc3c(c2=O)C2(CCCCC2)Cc2ccccc2-3)c1,inactive
6,CC(C)C(=O)Nc1nnc(CCN2CCCCC2)s1,inactive
7,CC1Sc2ccccc2N(CC(=O)N(C(C)C)C(C)C)C1=O (centres undefined),inactive
8,Cc1cc(C)c2sc(C)[n+](CCCS(=O)(=O)[O-])c2c1,inactive
9,CC(=O)NC(CC(=O)NC1CCCc2ccccc21)c1ccccc1 (centres undefined),inactive
10,NCC12CC3CC(C1)CC(c1ccc(Cl)cc1)(C3)C2,inactive
11,CN(C)S(=O)(=O)n1cc(/C=C(\NC(=O)c2ccccc2)C(=O)N2CCCC2)c2ccccc21,inactive
12,O=C(/C=C/Nc1ccc([N+](=O)[O-])cc1Br)c1cccc2ccccc12,inactive
13,CCN(CC)CCOc1ccc2c(c1)C(=NNC(=O)c1ccccn1)c1cc(OCCN(CC)CC)ccc1-2,inactive
14,CC(=O)N1CCN(c2ncnc3ccccc23)CC1,inactive
15,COc1ccc(-n2nc3c(c2NC(=O)c2ccc(N4C(=O)CCC4=O)cc2)CSC3)cc1,inactive
16,Cc1ccc(NC(=S)N(CCCN2CCCC2)Cc2cccn2Cc2ccc(Cl)cc2)cc1C,inactive

row,Compound,"activity change, negative = inhibition"
1,Cc1cc(C)nc(N2CCC(C(=O)Nc3ccc4c(c3)OCCO4)CC2)n1,inactive
2,Cc1ccc(CN2CCN(CC(=O)NCc3ccccc3)CC2)cc1,inactive
3,COc1ccc(NC(=O)c2nc3ccccc3s2)cc1,inactive
4,O=C(CCn1c(=O)c2ccccc2n(Cc2cccc([N+](=O)[O-])c2)c1=O)N1CCc2ccccc2C1,inactive
5,Cc1ccc(S(=O)(=O)c2nc(-c3ccccc3)oc2N2CCC(C(N)=O)CC2)cc1,inactive
6,N=C1c2ccccc2CN1NC(=O)c1ccccc1,inactive
7,CN(C)c1ccc(/C=C/c2ccc3c4ccccc4ccc3[n+]2-c2ccccc2)cc1,inactive
8,CCCCCCCCCCn1c2c(c(=N)c3c1CCC3)CCC2,inactive
9,O=C(Cc1ccc(F)cc1)Nc1cccc2cccnc12,inactive
10,Cc1nonc1OCCn1c([N+](=O)[O-])cnc1C,inactive
11,CN(CC(=O)Nc1ccc(F)cc1)C(=O)COc1ccccc1Cc1ccccc1,inactive
12,COc1ccccc1C(=O)NCC(=O)N=Nc1c(O)n(C(C)C)c2ccccc12,inactive
13,O=C(C/C=N/OCc1ccc(Cl)cc1Cl)c1ccccc1,inactive
14,O=C(NCc1ccc(Cl)cc1)c1ccccc1CCc1ccccc1,inactive
15,CC(=O)Nc1nnc(CCS(=O)(=O)c2ccc(C)c(C)c2)s1,inactive
